Data on eleven compounds can be found in ChEMBL document CHEMBL1201862, “PubChem BioAssay data set” (2004).

Among the test systems are SR; SF-539; SK-OV-3; NCI-H460; HL-60; EKVX; HT-29; UACC-62; HOP-92; A498; SK-MEL-2; LOX IMVI; SN12C; Malme-3M; IGROV-1; MDA-MB-231; SF-295; CAKI-1; MOLT-4; KM-20L2.
What all share (assay): growth of human tumour cells (NCI), 48 h

Where a name gives a salt, the structure may show the parent alone.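 1) Cells in 96-well plates. 2) Compound, 48 h, 5 concentrations. 3) Linear interpolation between surrounding doses. 4) Unreached endpoint = highest concentration. The concentration for 50% growth inhibition is given as GI50.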 The source made the active and inactive calls. Cut-off read from the data, not from the text of the source: active = GI50 up to about 1.1 µM and inactive = higher.

On to `Oc1cccc(Nc2cc(O)nc(O)n2)c1`, for which the GI50 in the assay on SR was > 100 µM (inactive); in the assay with SF-539 it was > 100 µM (inactive); in the assay with SK-OV-3, 67.9 µM (inactive); in the assay with NCI-H460, > 100 µM (inactive); with HL-60 it was > 100 µM (inactive); in the assay on EKVX, > 100 µM (inactive). Besides, the GI50 with HT-29 was > 100 µM (inactive); in the assay with UACC-62, > 100 µM (inactive); with HOP-92, 66.8 µM (inactive); in the assay with A498, > 100 µM (inactive); with SK-MEL-2 it was > 100 µM (inactive); in the assay with LOX IMVI it was > 100 µM (inactive). Moreover, the GI50 with SN12C, in the assay on Malme-3M, in the assay with IGROV-1, with MDA-MB-231, in the assay on SF-295 and in the assay on CAKI-1 was > 100 µM (inactive) in each case. Further, the GI50 with MOLT-4 is > 100 µM (inactive).

As for `O=C(CSc1nnc(Cc2ccccc2)o1)Nc1ccccc1`, the GI50 in the assay with SF-539, in the assay with SK-OV-3, in the assay with NCI-H460, in the assay with HL-60, with HT-29 and in the assay on UACC-62 was > 100 µM (inactive) in each case. For the same compound, the GI50 in the assay with A498, in the assay with SK-MEL-2, with LOX IMVI, with SN12C, in the assay with Malme-3M and in the assay on IGROV-1 was > 100 µM (inactive) in each case. For the same compound, the GI50 with KM-20L2, in the assay with SF-295 and in the assay with MOLT-4 was > 100 µM (inactive) each time.

Take `O=C1c2ccccc2C(=O)C12CCc1ccccc12`: the GI50 was > 100 µM (inactive) in the assay on SK-OV-3; > 100 µM (inactive) in the assay with NCI-H460; 23.6 µM (inactive) with HL-60; > 100 µM (inactive) in the assay with EKVX; > 100 µM (inactive) in the assay with HT-29; > 100 µM (inactive) in the assay with UACC-62. For the same compound, the GI50 with HOP-92, in the assay with LOX IMVI, in the assay with SN12C, with Malme-3M, in the assay on IGROV-1 and in the assay with KM-20L2 was > 100 µM (inactive) in each case. The GI50 in the assay on SF-295 is > 100 µM (inactive); in the assay with CAKI-1, > 100 µM (inactive); in the assay on MOLT-4, 4.18 µM (inactive).

Turning to `C=C1CCOC2(C(O)C(C)(O)CO)NC(=O)C1(O)NC2=O` (stereo not drawn), the GI50 in the assay on SR, in the assay with SF-539, in the assay on SK-OV-3, with NCI-H460, in the assay with HL-60 and in the assay with EKVX was > 100 µM (inactive) throughout. Moreover, the GI50 with HT-29, in the assay on UACC-62, with HOP-92, with A498, in the assay with SK-MEL-2 and in the assay with LOX IMVI was > 100 µM (inactive) in each case. The GI50 with SN12C, with Malme-3M, with IGROV-1, with MDA-MB-231, in the assay on SF-295 and in the assay with CAKI-1 was > 100 µM (inactive) in each case. In the assay on MOLT-4, the GI50 was > 100 µM (inactive).

With `O=c1ncccn1C1C=C(CO)C(O)C1O` (stereo not drawn), the GI50 in the assay on SF-539, in the assay with SK-OV-3, in the assay with NCI-H460, with HL-60, in the assay with EKVX and in the assay on HT-29 was > 50 µM (inactive) throughout. Besides, the GI50 in the assay on HOP-92, in the assay with A498, in the assay on SK-MEL-2, with LOX IMVI, in the assay with Malme-3M and in the assay with KM-20L2 was > 50 µM (inactive) each time. In addition, the GI50 in the assay with SF-295, in the assay on CAKI-1 and in the assay on MOLT-4 was > 50 µM (inactive) throughout.

In the case of `COc1ccc(/C=C2\CN(C)CC3C2=NC(=S)NC3c2ccc(OC)cc2)cc1` (stereo not drawn), the GI50 with SR was 0.865 µM (active); with SF-539 it was 7.11 µM (inactive); with SK-OV-3, 5.66 µM (inactive); in the assay with NCI-H460, 2.8 µM (inactive); in the assay on HL-60 it was 2.19 µM (inactive); in the assay on EKVX, 11.5 µM (inactive). Moreover, the GI50 is 3.51 µM (inactive) in the assay with HT-29; 4.58 µM (inactive) with UACC-62; 3.21 µM (inactive) in the assay with HOP-92; 3.27 µM (inactive) with A498; 13.9 µM (inactive) in the assay on SK-MEL-2; 4.76 µM (inactive) in the assay on LOX IMVI. In addition, the GI50 in the assay with SN12C was 6.81 µM (inactive); in the assay on Malme-3M, 2.99 µM (inactive); with IGROV-1, 2.98 µM (inactive); in the assay on MDA-MB-231, 13.3 µM (inactive); in the assay with SF-295, 3.69 µM (inactive); in the assay with CAKI-1, 6.64 µM (inactive). Also, the GI50 in the assay with MOLT-4 is 2.9 µM (inactive).

Turning to `Cc1ccc(/C=C/C(=O)c2sc(-c3nc(C)c(C(=O)/C=C/c4ccc(C)cc4)s3)nc2C)cc1`, the GI50 in the assay on SF-539, in the assay with SK-OV-3, with NCI-H460, in the assay with HL-60, in the assay on EKVX and with HT-29 was > 100 µM (inactive) in each case. In addition, the GI50 in the assay on UACC-62, in the assay with HOP-92, in the assay with A498, with SK-MEL-2, with LOX IMVI and in the assay with SN12C was > 100 µM (inactive) throughout. Also, the GI50 with Malme-3M, with IGROV-1, with KM-20L2, in the assay on SF-295, in the assay with CAKI-1 and in the assay with MOLT-4 was > 100 µM (inactive) throughout.

As for `C/C(CC(=O)Nc1cccc(Cl)c1C)=N\NC(N)=S`, the GI50 in the assay with SF-539, in the assay with SK-OV-3, with NCI-H460, in the assay on HL-60, with EKVX and in the assay with HT-29 was > 100 µM (inactive) throughout. For the same compound, the GI50 in the assay with UACC-62 was > 100 µM (inactive); in the assay with HOP-92, 30.1 µM (inactive); in the assay on A498 it was > 100 µM (inactive); in the assay with SK-MEL-2, > 100 µM (inactive); in the assay with LOX IMVI it was > 100 µM (inactive); in the assay on Malme-3M, > 100 µM (inactive). Besides, the GI50 with IGROV-1, in the assay on KM-20L2, in the assay on SF-295 and in the assay on MOLT-4 was > 100 µM (inactive) throughout.

Regarding `O=C1/C(=C/c2ccc(O)cc2)Oc2ccccc21`, the GI50 in the assay with SR was 47.6 µM (inactive); in the assay on SF-539, > 100 µM (inactive); in the assay with SK-OV-3 it was > 100 µM (inactive); in the assay with NCI-H460 it was > 100 µM (inactive); with HL-60 it was 35.6 µM (inactive); with EKVX it was > 100 µM (inactive). The GI50 in the assay on HT-29, in the assay on UACC-62, with HOP-92, with A498, with SK-MEL-2 and in the assay with LOX IMVI was > 100 µM (inactive) throughout. Also, the GI50 in the assay with SN12C, with Malme-3M, in the assay with IGROV-1, in the assay on MDA-MB-231, in the assay with SF-295 and in the assay with CAKI-1 was > 100 µM (inactive) in each case. Besides, in the assay on MOLT-4, the GI50 is 44.9 µM (inactive).

On to `Fc1ccc(/N=C/C=C/Nc2ccc(F)cc2)cc1`, for which the GI50 was 2.44 µM (inactive) in the assay with SR; 14.1 µM (inactive) in the assay on SF-539; 15.3 µM (inactive) in the assay with SK-OV-3; 6.19 µM (inactive) with NCI-H460; 2.26 µM (inactive) in the assay with HL-60; 12.9 µM (inactive) in the assay on EKVX. The GI50 in the assay with HT-29 is 5.35 µM (inactive); in the assay on UACC-62, 0.509 µM (active); in the assay with HOP-92, 17.6 µM (inactive); in the assay with A498, 15.5 µM (inactive); in the assay with SK-MEL-2, 13.6 µM (inactive); in the assay with LOX IMVI, 0.817 µM (active). The GI50 in the assay with SN12C is 14 µM (inactive); in the assay on Malme-3M, 16.4 µM (inactive); in the assay on IGROV-1, 12.8 µM (inactive); in the assay with MDA-MB-231, 15.8 µM (inactive); with SF-295 it was 8.28 µM (inactive); in the assay with CAKI-1 it was 12.7 µM (inactive). Besides, the GI50 with MOLT-4 is 12.9 µM (inactive).

With `NCCCNCCCCNCCCN` [SPERMINE TETRAHYDROCHLORIDE], the GI50 in the assay with SR was 3.74 µM (inactive); in the assay with SF-539, 8.83 µM (inactive); in the assay with SK-OV-3, > 38.7 µM (inactive); with NCI-H460, > 100 µM (inactive); in the assay with HL-60, 4.26 µM (inactive); in the assay with EKVX, 17.8 µM (inactive). For the same compound, the GI50 is 15.6 µM (inactive) with HT-29; > 100 µM (inactive) with UACC-62; 1.93 µM (inactive) in the assay on HOP-92; > 100 µM (inactive) in the assay with A498; > 100 µM (inactive) in the assay on SK-MEL-2; 8.11 µM (inactive) with LOX IMVI. Further, the GI50 with SN12C is 4.41 µM (inactive); in the assay on Malme-3M, 93.1 µM (inactive); in the assay on IGROV-1, 13.2 µM (inactive); with MDA-MB-231, > 43.6 µM (inactive); in the assay with SF-295 it was > 100 µM (inactive); in the assay with CAKI-1 it was 5.97 µM (inactive). Also, the GI50 with MOLT-4 is 4.53 µM (inactive).
